≈ marks a conversion by molar mass, not a printed value.
What was measured:
[1] = MTT cytotoxicity assay, A431; assay type: cell-based, human; conditions: human, A431 epidermoid carcinoma cells, 5 days incubation
Method: (§1) In vitro cytotoxicity (IC50) of the pure compounds 1–5 was determined against a panel of mammalian cell lines including mouse fibroblast L929, HeLa (KB-3-1), epidermoid carcinoma cells A431, breast cancer cells MCF-7, prostate cancer cells PC-3 and adenocarcinomic human alveolar basal epithelial cells A549. The cell lines were cultured in DMEM (Gibco, ThermoFisher Scientific, Hilden, Germany) and MCF-7 in RPMI (Lonza, Cologne, Germany) media, all supplemented with 10% of fetal bovine serum (Gibco) under 10% CO2 at 37 °C. The cytotoxicity assay was performed according to the MTT (3-(4,5-dimethylthiazol-2-yl)-2,5 diphenyltetrazolium bromide) method in 96-well microplates (ThermoFisher Scientific). Briefly 60 μL aliquots of serial dilutions from an initial stock of 1 mg/mL in MeOH of the test compounds were added to 120 μL aliquots of a cell suspension (5.0 × 10^4 cells/mL) in 96-well microplates. After 5 days incubation, a MTT assay was performed, and the absorbance measured at 590 nm using an ELISA plate reader (Victor, PerkinElmer, Überlingen, Germany). The concentration at which the growth of cells was inhibited to 50% of the control (IC50) was obtained from the dose response curves. The negative control was methanol.

[2] = MTT cytotoxicity assay, PC-3; assay type: cell-based, human; conditions: human, PC-3 prostate cancer cells, PC-3 cells, 5 days incubation
Method: as §1

[3] = MTT cytotoxicity assay, SKOV-3; assay type: cell-based, human; conditions: human, SKOV-3 cells, 5 days incubation
[4] = MTT cytotoxicity assay, KB3.1; assay type: cell-based, human; conditions: human, HeLa (KB-3-1) cells, KB3.1 cells, 5 days incubation
Method: as §1

[5] = MTT cytotoxicity assay, L929; assay type: cell-based, mouse; conditions: mouse, L929 fibroblast cells, 5 days incubation
Method: as §1

[6] = MTT cytotoxicity assay, MCF-7; assay type: cell-based, human; conditions: human, MCF-7 breast cancer cells, MCF-7 cells, 5 days incubation
Method: as §1

[7] = tested on: various mammalian cell lines; assay: Cytotoxic effects against the panel of mammalian cell lines (overall statement); assay type: cell-based; conditions: all tested cell lines of Table 3
Method: as §1

[8] = MTT cytotoxicity assay, A549; assay type: cell-based, human; conditions: human, A549 alveolar basal epithelial adenocarcinoma cells, 5 days incubation
Method: as §1

[9] = tested on: epidermoid carcinoma cells A431; assay: MTT cytotoxicity assay, A431; assay type: cell-based, human; conditions: 5 days incubation
Method: as §1

[10] = tested on: prostate cancer cells PC-3; assay: MTT cytotoxicity assay, PC-3; assay type: cell-based, human; conditions: PC-3 cells, 5 days incubation
Method: as §1

[11] = tested on: adenocarcinomic human alveolar basal epithelial cells A549; assay: MTT cytotoxicity assay, A549; assay type: cell-based; conditions: 5 days incubation
Method: as §1

SKOV-3 = assay: MTT cytotoxicity assay, SKOV-3; assay type: cell-based, human; conditions: SKOV-3 cells, 5 days incubation
HeLa (KB-3-1) = assay: MTT cytotoxicity assay, KB3.1; assay type: cell-based, human; conditions: KB3.1 cells, 5 days incubation
Method: as §1

mouse fibroblast L929 = assay: MTT cytotoxicity assay, L929; assay type: cell-based; conditions: L929 cells, 5 days incubation
Method: as §1

[12] = tested on: breast cancer cells MCF-7; assay: MTT cytotoxicity assay, MCF-7; assay type: cell-based, human; conditions: MCF-7 cells, 5 days incubation
Method: as §1

| SMILES | IC50 at 5 days [1] | IC50 at 5 days [2] | IC50 at 5 days [3] | IC50 at 5 days [4] | IC50 at 5 days [5] | IC50 at 5 days [6] | Cytotoxic activity against the tested cell lines (in words) [7] | IC50 at 5 days [8] | Cytotoxicity IC50 [9] | Cytotoxicity IC50 [10] | Cytotoxicity IC50 [11] | Cytotoxicity IC50 (SKOV-3) | Cytotoxicity IC50 (HeLa (KB-3-1)) | Cytotoxicity IC50 (mouse fibroblast L929) | Cytotoxicity IC50 [12] |
| --- | --- | --- | --- | --- | --- | --- | --- | --- | --- | --- | --- | --- | --- | --- | --- |
| CC(=O)C1C(O)CC2C3=CC(=O)C4CC(O)CCC4(C)C3(O)CCC21C (centres unmarked) [Compound 1, Aethiopinolone A] | 22 µg/mL (≈ 60.7 µM) | 8 µg/mL (≈ 22.1 µM) | 26 µg/mL (≈ 71.7 µM) | 19 µg/mL (≈ 52.4 µM) | 28 µg/mL (≈ 77.2 µM) | 20 µg/mL (≈ 55.2 µM) | strongest activity |  |  |  |  |  |  |  |  |
| CC(=O)[C@H]1[C@H](O)C[C@H]2C3=CC(=O)[C@H]4C[C@H](O)CC[C@]4(C)[C@@]3(O)CC[C@@]21C [Compound 2, Aethiopinolone B] | > 70 µg/mL | > 70 µg/mL | > 70 µg/mL | 39 µg/mL (≈ 108 µM) | 45 µg/mL (≈ 124 µM) | > 70 µg/mL |  | > 70 µg/mL |  |  |  |  |  |  |  |
| CC(=O)C1=CC[C@H]2C3=CC(=O)[C@H]4C[C@@H](O)CC[C@]4(C)[C@@]3(O)CC[C@]12C [Compound 3, Aethiopinolone C] | 27 µg/mL (≈ 78.4 µM) | 45 µg/mL (≈ 131 µM) | 38 µg/mL (≈ 110 µM) | 35 µg/mL (≈ 102 µM) | 40 µg/mL (≈ 116 µM) | 18 µg/mL (≈ 52.3 µM) | moderate activity | 70 µg/mL (≈ 203 µM) |  |  |  |  |  |  |  |
| CC(=O)C1=CC[C@H]2C3=CC(=O)[C@H]4C[C@H](O)CC[C@]4(C)[C@@]3(O)CC[C@]12C [Compound 4, Aethiopinolone D] | 21 µg/mL (≈ 61 µM) | 40 µg/mL (≈ 116 µM) | 36 µg/mL (≈ 105 µM) | 39 µg/mL (≈ 113 µM) | 45 µg/mL (≈ 131 µM) | 17 µg/mL (≈ 49.4 µM) | moderate activity | 52 µg/mL (≈ 151 µM) |  |  |  |  |  |  |  |
| CC(=O)C1=CC[C@H]2C3=CC(=O)[C@H]4CC(=O)CC[C@]4(C)[C@@]3(O)CC[C@]12C [Compound 5, Aethiopinolone E] | 14 µg/mL (≈ 40.9 µM) | 39 µg/mL (≈ 114 µM) | 34 µg/mL (≈ 99.3 µM) | 33 µg/mL (≈ 96.4 µM) | 40 µg/mL (≈ 117 µM) | 16 µg/mL (≈ 46.7 µM) |  | 43 µg/mL (≈ 126 µM) |  |  |  |  |  |  |  |
| C/C(=C\c1csc(C)n1)[C@@H]1C[C@@H]2O[C@]2(C)CCC[C@H](C)[C@H](O)[C@@H](C)C(=O)C(C)(C)[C@@H](O)CC(=O)O1 [Epothilon B, reference compound] |  |  |  |  |  |  |  |  | 0.0006 µg/mL | 0.0002 µg/mL | 0.005 µg/mL | 0.0014 µg/mL | 0.00022 µg/mL | 0.0014 µg/mL | 0.0004 µg/mL |

— publication PMC6017562, “Aethiopinolones A–E, New Pregnenolone Type Steroids from the East African Basidiomycete Fomitiporia aethiopica” (Molecules : A Journal of Synthetic Chemistry and Natural …, 2018)
